“And” between values parts separate entries of the source, which are not always exact repeats. Equal values may be shown once. Inconclusive results and toxic doses are left out. Cut-off read from the data, not from the text of the source: active = T/C of 150% or more; inactive = T/C below 125%.
System: L1210 leukemia ip in BDF1 mice, survival T/C
Assay: NCI In Vivo Anticancer Drug Screen. Data for tumor model L1210 Leukemia (intraperitoneal) in B6D2F1 (BDF1) mice
Settings: endpoint: mean survival time, higher = longer survival
Summary of the method: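 Antitumor effect is assessed in tumor-bearing animals. Survival in the compound arm is compared with a vehicle-dosed control arm and expressed as their quotient.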

[1] = dose: 50.0 mg/kg/injection, schedule: Q01DX009 (ip), vehicle: saline
[2] = dose: 100.0 mg/kg/injection, schedule: Q01DX009 (ip), vehicle: saline
[3] = dose: 100.0 mg/kg/injection, schedule: Q04DX002 (ip), vehicle: saline
[4] = dose: 200.0 mg/kg/injection, schedule: Q04DX002 (ip), vehicle: saline
[5] = dose: 400.0 mg/kg/injection, schedule: Q04DX002 (ip), vehicle: saline
[6] = dose: 100.0 mg/kg/injection, schedule: Q01DX009 (ip), vehicle: Klucel (hydroxypropylcellulose) (HPC)
[7] = dose: 100.0 mg/kg/injection, schedule: Q04DX002 (ip), vehicle: Klucel (hydroxypropylcellulose) (HPC)
[8] = dose: 200.0 mg/kg/injection, schedule: Q04DX002 (ip), vehicle: Klucel (hydroxypropylcellulose) (HPC)
[9] = dose: 100.0 mg/kg/injection, schedule: Q04DX003 (ip), vehicle: Klucel (hydroxypropylcellulose) (HPC)
[10] = dose: 200.0 mg/kg/injection, schedule: Q04DX003 (ip), vehicle: Klucel (hydroxypropylcellulose) (HPC)
[11] = dose: 400.0 mg/kg/injection, schedule: Q04DX003 (ip), vehicle: Klucel (hydroxypropylcellulose) (HPC)
[12] = dose: 25.0 mg/kg/injection, schedule: Q01DX009 (ip), vehicle: Klucel (hydroxypropylcellulose) (HPC)
[13] = dose: 100.0 mg/kg/injection, schedule: Q01DX009 (ip), vehicle: saline with Tween-80
[14] = dose: 200.0 mg/kg/injection, schedule: Q01DX009 (ip), vehicle: saline with Tween-80
[15] = dose: 200.0 mg/kg/injection, schedule: Q01DX009 (ip), vehicle: saline
[16] = dose: 100.0 mg/kg/injection, schedule: Q01DX001 (ip), vehicle: carboxymethylcellulose (CMC)
[17] = dose: 200.0 mg/kg/injection, schedule: Q01DX001 (ip), vehicle: carboxymethylcellulose (CMC)
[18] = dose: 400.0 mg/kg/injection, schedule: Q01DX001 (ip), vehicle: carboxymethylcellulose (CMC)

Measured: T/C

CN1CCC=C(CN2c3ccccc3Sc3ccccc32)C1
inactive: dose: 25.0 mg/kg/injection, schedule: Q01DX009 (ip), vehicle: saline 109 % of control | dose: 25.0 mg/kg/injection, schedule: Q04DX003 (ip), vehicle: saline 101 % of control | [1] 119 % of control | dose: 50.0 mg/kg/injection, schedule: Q04DX003 (ip), vehicle: saline 105 % of control | [2] 124 % of control | dose: 100.0 mg/kg/injection, schedule: Q04DX003 (ip), vehicle: saline 103 % of control and 105 % of control

C[CH2][Ge]1([CH2]C)[CH2]CC2(C[CH2]1)NC(=O)NC2=O
inactive: [3] 103 % of control | [4] 100 % of control | [5] 96 % of control

O=C(O)c1ccc(NC(=O)c2cccc(F)c2)cc1
inactive: [6] 100 % of control | dose: 200.0 mg/kg/injection, schedule: Q01DX009 (ip), vehicle: Klucel (hydroxypropylcellulose) (HPC) 108 % of control | dose: 400.0 mg/kg/injection, schedule: Q01DX009 (ip), vehicle: Klucel (hydroxypropylcellulose) (HPC) 101 % of control

CC1CCCCN1C(=O)c1ccccc1C(=O)O (stereo unspecified)
inactive: [7] 104 % of control | [8] 111 % of control

O=S1(=O)CCCC1C(O)c1ccccc1 (stereo unspecified)
inactive: [9] 94 % of control and 98 % of control | [10] 105 % of control and 102 % of control | [11] 105 % of control and 94 % of control

CC=C1C(C(=O)O)C1C(=O)O (stereo unspecified)
inactive: [12] 93 % of control | dose: 50.0 mg/kg/injection, schedule: Q01DX009 (ip), vehicle: Klucel (hydroxypropylcellulose) (HPC) 93 % of control | [6] 95 % of control and 96 % of control | [3] 115 % of control | [4] 107 % of control | [5] 113 % of control

O=C(Cc1ccccc1)CC(O)(C(F)(F)F)C(F)(F)F
inactive: [13] 110 % of control | [14] 100 % of control

Nc1ccn(C2OC(COC3CCCCO3)C(OC3CCCCO3)C2OC2CCCCO2)c(=O)n1 (stereo unspecified)
inactive: [1] 95 % of control | dose: 100.0 mg/kg/injection, schedule: Q01DX005 (ip), vehicle: saline 110 % of control | [2] 104 % of control | dose: 200.0 mg/kg/injection, schedule: Q01DX005 (ip), vehicle: saline 94 % of control | [15] 101 % of control

CC(NC(=O)OC(C)(C)C)C(=O)O (stereo unspecified)
inactive: [16] 104 % of control | [17] 104 % of control | [18] 104 % of control

O=C(CC=C(c1ccccc1)c1ccccc1)Nc1ccccc1
inactive: dose: 100.0 mg/kg/injection, schedule: Q01DX001 (ip), vehicle: saline with Tween-80 90 % of control | dose: 200.0 mg/kg/injection, schedule: Q01DX001 (ip), vehicle: saline with Tween-80 87 % of control

O=C(OC1C2C=CC1C1C(=O)NC21)c1ccccc1 (stereo unspecified)
inactive: dose: 75.0 mg/kg/injection, schedule: Q01DX001 (ip), vehicle: carboxymethylcellulose (CMC) 97 % of control | dose: 150.0 mg/kg/injection, schedule: Q01DX001 (ip), vehicle: carboxymethylcellulose (CMC) 102 % of control | dose: 300.0 mg/kg/injection, schedule: Q01DX001 (ip), vehicle: carboxymethylcellulose (CMC) 113 % of control

CCCCCCCC(=O)OCCCl
inactive: [2] 94 % of control | [15] 97 % of control | dose: 400.0 mg/kg/injection, schedule: Q01DX009 (ip), vehicle: saline 91 % of control

O=C1CCCC(=O)c2ccccc21
inactive: [16] 98 % of control | [17] 93 % of control | [18] 102 % of control

CC1CC(N2CSC(=S)N(C3CC(C)CC(C)(C)C3)C2)CC(C)(C)C1 (stereo unspecified)
inactive: [12] 93 % of control | [6] 86 % of control and 90 % of control | [9] 89 % of control | [10] 94 % of control | [11] 91 % of control

CC1CC(C)OP(Oc2ccccc2)O1 (stereo unspecified)
inactive: dose: 100.0 mg/kg/injection, schedule: Q01DX001 (ip), vehicle: saline 110 % of control | dose: 200.0 mg/kg/injection, schedule: Q01DX001 (ip), vehicle: saline 96 % of control | dose: 400.0 mg/kg/injection, schedule: Q01DX001 (ip), vehicle: saline 98 % of control

S=C(NCc1ccccc1)NCc1ccccc1
inactive: [7] 94 % of control and 87 % of control | [8] 87 % of control | dose: 400.0 mg/kg/injection, schedule: Q04DX002 (ip), vehicle: Klucel (hydroxypropylcellulose) (HPC) 90 % of control

CC1=CC(C)(C)NC(=S)N1C
inactive: dose: 6.25 mg/kg/injection, schedule: Q04DX003 (ip), vehicle: saline with Tween-80 96 % of control | dose: 12.5 mg/kg/injection, schedule: Q04DX003 (ip), vehicle: saline with Tween-80 95 % of control | dose: 25.0 mg/kg/injection, schedule: Q04DX003 (ip), vehicle: saline with Tween-80 95 % of control | dose: 166.0 mg/kg/injection, schedule: Q01DX Z (ip), vehicle: methylcellulose (MC) 87 % of control

C=COc1c(Cl)cc(Cl)cc1Cl
inactive: [13] 93 % of control and 101 % of control | dose: 100.0 mg/kg/injection, schedule: Q04DX002 (ip), vehicle: saline with Tween-80 105 % of control and 107 % of control | [14] 101 % of control and 102 % of control | dose: 200.0 mg/kg/injection, schedule: Q04DX002 (ip), vehicle: saline with Tween-80 97 % of control and 98 % of control | dose: 400.0 mg/kg/injection, schedule: Q01DX009 (ip), vehicle: saline with Tween-80 100 % of control and 104 % of control | dose: 400.0 mg/kg/injection, schedule: Q04DX002 (ip), vehicle: saline with Tween-80 94 % of control and 101 % of control

Nc1c(Br)cc([N+](=O)[O-])cc1Br
inactive: [9] 111 % of control | [10] 95 % of control | [11] 105 % of control

[N-]=[N+]=Nc1ccc(C(=O)O)cc1
inactive: dose: 100.0 mg/kg/injection, schedule: Q01DX001 (ip), vehicle: Klucel (hydroxypropylcellulose) (HPC) 100 % of control | dose: 200.0 mg/kg/injection, schedule: Q01DX001 (ip), vehicle: Klucel (hydroxypropylcellulose) (HPC) 100 % of control | dose: 400.0 mg/kg/injection, schedule: Q01DX001 (ip), vehicle: Klucel (hydroxypropylcellulose) (HPC) 103 % of control

— PubChem BioAssay AID248 (DTP/NCI, 2004)
